The record followed here is ChEMBL document CHEMBL2331180, “Synthetic glycolipids for glioma growth inhibition developed from neurostatin and NF115 compound” (2013).

For one assay, the system named is C6. Description: Antitumor activity against rat C6 cells transplanted to rat assessed as reduction in tumor growth at 8 mg/kg, intra-tumor treated after 1 week of tumor injection measured up to 15 days relative to untreated control. In kind it is functional, organism-based. Further details: dose 8 mg/kg.
Assay [1] in a line: Antiproliferative activity against human […] cells assessed as inhibitory activity measured after 36 hrs by [3H]thymidine incorporation assay. The following applies: read-out: ID50 (the source's name). It counts as functional. A general note: Uptake of a labelled nucleoside into DNA is a usual measure of proliferation.
Assay [2] can be described thus: Antiproliferative activity against human […] cells assessed as Tumor protein p53 gene repression at IC50 concentration after 24 hrs by microarray analysis relative to control. In kind it is functional.
Assay [3] can be described thus: Antiproliferative activity against human […] cells assessed as Solute carrier family 4, anion exchanger, member 2 (erythrocyte membrane protein band 3-like 1) gene repression at IC50 concentration after 24 hrs by microarray analysis relative to control. In kind it is functional.
A short description of assay [4]: Antiproliferative activity against human […] cells assessed as Human Bcl-x beta gene repression at IC50 concentration after 24 hrs by microarray analysis relative to control. It counts as functional.
A short description of assay [5]: Antiproliferative activity against human […] cells assessed as Rho GDP dissociation inhibitor (GDI) alpha gene repression at IC50 concentration after 24 hrs by microarray analysis relative to control. In kind it is functional.
Assay [6] in a line: Antiproliferative activity against human […] cells assessed as Human epsilon 14-3-3 protein gene repression at IC50 concentration after 24 hrs by microarray analysis relative to control. It counts as functional.

Each structure is given as a SMILES string. Activity calls are given as the source filed them. The calls are words filed in the database; no cut-off is given here.

As to `CCCCCCCCCCCCCCCCO[C@H]1O[C@H](COCC(CO)(CO)COS(=O)(=O)O)[C@@H](O)[C@H](O)[C@H]1NC(=O)CCCC`, in the assay on C6, the outcome was Active. In assay [1], the IC50 was 3.2 µM.
On the same counts, the results for `CCCCCCCCCCCCCCCCO[C@H]1O[C@H](CO)[C@@H](O)[C@H](O)[C@H]1NC(C)=O` are “inactive” and 13 µM.
Regarding `CCCCCCCCCCCCCCCCO[C@H]1O[C@H](COCC(O)CO)[C@@H](O)[C@H](O)[C@H]1NC(=O)CCCC` (some centres not stated), in the assay on C6, the outcome was inactive. In addition, the IC50 in assay [1] amounted to 4.6 µM.
For `CCCCCCCCO[C@H]1O[C@H](COCC(CO)(CO)CO)[C@@H](O)[C@H](O)[C@H]1NC(C)=O`, the “fold change (FC)” value came to 0.5 in assay [2]; 0.7 in assay [3]; 0.3 in assay [4]; 0.3 in assay [5]; 0.5 in assay [6]. Further, the IC50 in assay [1] was 180 µM.
